Measured values published in PMC7321065, “Discovery of New Schiff Bases Tethered Pyrazole Moiety: Design, Synthesis, Biological Evaluation, and Molecular Docking Study as Dual Targeting DHFR/DNA Gyrase Inhibitors with Immunomodulatory Activity” (Molecules, 2020).
Converted amounts (≈) assume the structure as drawn. Where two headings read alike, the source gives them in different places.

Columns and labels:
[1] = tested on: Bacillus subtilis; assay: Inhibition zone, agar plate diffusion; format: cell-based; conditions: Bs, mm ± standard deviation, sample at 0.5 mg/mL, read-out: Inhibition zone (IZ)
Method in brief: (§1)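 Compounds in DMSO, with DMSO as negative control, were tested at 0.5 mg/mL in agar wells cut 10 mm wide.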

[2] = tested on: Enterococcus faecalis; assay: Inhibition zone, agar plate diffusion; format: cell-based; conditions: Ef, mm ± standard deviation, sample at 0.5 mg/mL, read-out: Inhibition zone (IZ)
Method in brief: as §1

[3] = tested on: Pseudomonas aeruginosa; assay: Inhibition zone, agar plate diffusion; format: cell-based; conditions: Pa, mm ± standard deviation, sample at 0.5 mg/mL, read-out: Inhibition zone (IZ)
Method in brief: as §1

[4] = tested on: Bacillus subtilis; assay: MIC/MBC, paper disk diffusion; format: cell-based; conditions: B. subtilis; for MBC: read-out: MBC
Method in brief: (§2)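 MIC and MBC were obtained by paper disk diffusion, bacteria grown on nutrient agar and fungi/yeast on Sabouraud agar. MIC is the lowest concentration inhibiting growth.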

[5] = tested on: Enterococcus faecalis; assay: MIC/MBC, paper disk diffusion; format: cell-based; conditions: E. faecalis; for MBC: read-out: MBC; for MIC: read-out: MIC
Method in brief: as §2

[6] = tested on: Escherichia coli; assay: MIC/MBC, paper disk diffusion; format: cell-based; conditions: E. coli; for MBC / MIC: Escherichia coli; for MBC: read-out: MBC; for MIC: read-out: MIC
Method in brief: as §2

[7] = tested on: Pseudomonas aeruginosa; assay: MIC/MBC, paper disk diffusion; format: cell-based; conditions: P. aeruginosa; for MBC / MIC: Pseudomonas aeruginosa; for MBC: read-out: MBC; for MIC: read-out: MIC
Method in brief: as §2

[8] = tested on: Salmonella typhi; assay: MIC/MBC, paper disk diffusion; format: cell-based; conditions: Salmonella enterica, S. typhi; for MBC: read-out: MBC
Method in brief: as §2

[9] = tested on: Staphylococcus aureus; assay: MIC/MBC, paper disk diffusion; format: cell-based; conditions: Staphylococcus aureus, S. aureus; for MBC: read-out: MBC; for MIC: read-out: MIC
Method in brief: as §2

[10] = tested on: S. aureus ATCC 33591; assay: Inhibition zone against MDRB, agar plate diffusion; format: cell-based
[11] = tested on: E. coli ATCC BAA-196; assay: Inhibition zone against MDRB, agar plate diffusion; format: cell-based
[12] = target: B. subtilis DNA Gyrase (Bacillus subtilis, UniProt P05652+P05653); assay: DNA gyrase enzyme assay; format: biochemical; conditions: Mean ± SEM
[13] = Bacillus subtilis, read-out: MIC

Chain of B. subtilis DNA Gyrase (P05652 whole entry): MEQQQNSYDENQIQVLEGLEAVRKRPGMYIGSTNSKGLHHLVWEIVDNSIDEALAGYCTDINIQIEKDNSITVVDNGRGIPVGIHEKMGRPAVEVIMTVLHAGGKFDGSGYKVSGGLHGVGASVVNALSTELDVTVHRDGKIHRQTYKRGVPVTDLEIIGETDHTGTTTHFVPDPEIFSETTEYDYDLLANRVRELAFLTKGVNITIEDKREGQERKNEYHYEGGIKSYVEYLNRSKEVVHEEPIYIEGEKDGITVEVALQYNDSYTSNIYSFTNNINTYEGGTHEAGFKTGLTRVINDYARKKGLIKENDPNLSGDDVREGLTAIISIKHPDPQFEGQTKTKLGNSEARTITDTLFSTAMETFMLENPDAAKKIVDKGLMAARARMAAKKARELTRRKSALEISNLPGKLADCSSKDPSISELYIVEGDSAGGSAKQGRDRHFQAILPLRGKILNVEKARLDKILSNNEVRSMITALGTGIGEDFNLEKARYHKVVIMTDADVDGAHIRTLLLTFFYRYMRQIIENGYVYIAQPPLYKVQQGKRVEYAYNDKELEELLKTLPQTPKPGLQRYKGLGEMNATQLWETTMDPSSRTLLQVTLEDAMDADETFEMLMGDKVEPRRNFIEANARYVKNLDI
Chain of B. subtilis DNA Gyrase (P05653 whole entry): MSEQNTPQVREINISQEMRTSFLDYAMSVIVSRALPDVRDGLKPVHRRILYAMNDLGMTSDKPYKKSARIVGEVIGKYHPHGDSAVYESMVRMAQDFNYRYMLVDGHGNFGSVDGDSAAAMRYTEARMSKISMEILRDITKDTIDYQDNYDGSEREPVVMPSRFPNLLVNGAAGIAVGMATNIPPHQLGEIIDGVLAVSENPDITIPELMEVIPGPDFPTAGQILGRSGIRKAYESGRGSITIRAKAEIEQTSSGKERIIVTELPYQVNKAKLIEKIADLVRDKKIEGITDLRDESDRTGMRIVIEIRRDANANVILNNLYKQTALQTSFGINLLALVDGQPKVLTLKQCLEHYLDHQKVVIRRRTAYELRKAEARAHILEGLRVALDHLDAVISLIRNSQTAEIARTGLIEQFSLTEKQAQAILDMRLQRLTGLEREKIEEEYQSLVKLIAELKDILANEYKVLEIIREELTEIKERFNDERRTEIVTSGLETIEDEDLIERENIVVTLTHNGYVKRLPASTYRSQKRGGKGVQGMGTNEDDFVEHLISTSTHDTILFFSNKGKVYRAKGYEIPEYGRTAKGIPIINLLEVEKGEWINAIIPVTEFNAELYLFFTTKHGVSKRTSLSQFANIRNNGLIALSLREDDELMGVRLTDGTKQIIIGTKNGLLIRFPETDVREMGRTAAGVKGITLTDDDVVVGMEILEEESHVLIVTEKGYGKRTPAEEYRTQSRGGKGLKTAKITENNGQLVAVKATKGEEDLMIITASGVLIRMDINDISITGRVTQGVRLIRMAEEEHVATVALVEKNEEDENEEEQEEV

SMILES | zone of inhibition at 500 µg/mL [1] [mm] | zone of inhibition at 500 µg/mL [2] [mm] | zone of inhibition at 500 µg/mL [3] [mm] | MBC ([4]; Bacillus subtilis) [mg/L] | MIC [4, 13] [mg/L] | MBC [5] [mg/L] | MIC [5] [mg/L] | MBC [6] [mg/L] | MIC [6] [mg/L] | MBC [7] [mg/L] | MIC [7] [mg/L] | MIC [8] [mg/L] | MBC [8] [mg/L] | MBC [9] [mg/L] | MIC [9] [mg/L] | Mean Diameter of Inhibition Zone against MDRB [10] [mm] | Mean Diameter of Inhibition Zone against MDRB [11] [mm] | IC50 [12] [µM] | other results
COc1ccc(Nc2n[nH]c(N=Cc3ccc(N4CCCCC4)cc3)c2C(N)=O)cc1 [8a, 3-(p-Methoxyphenylamino)-5-(4-(piperidin-1-yl)benzylideneamino)-1H-pyrazole-4-carboxamide] | 27 ± 0.5 | 25 ± 0.33 | 25 ± 0.85 | 3.9 (≈ 9.32 µM) | 1.92 (≈ 4.59 µM) | 6.63 (≈ 15.8 µM) | 3.9 (≈ 9.32 µM) | 1.94 (≈ 4.64 µM) | 0.97 (≈ 2.32 µM) | 10.6 (≈ 25.3 µM) | 5.57 (≈ 13.3 µM) | 7.81 (≈ 18.7 µM) | 12.5 (≈ 29.8 µM) | 5.57 (≈ 13.3 µM) | 5.57 (≈ 13.3 µM) | 24 ± 0.12 | 25 ± 0.46 | 15.3 ± 0.5 | MIC [4]: 1.95 mg/L (≈ 4.66 µM); Fold more than Tetracycline (MIC) [6]: 16 fold; Fold more than Tetracycline (MIC) [7]: 11.2 fold
COc1ccc(Nc2n[nH]c(N=Cc3cc(OC)c(OC)c(OC)c3)c2C(=O)Nc2ccccc2)cc1 [9b, 3-(p-Methoxyphenylamino)-N-phenyl-5-(3,4,5-trimethoxybenzylideneamino)-1H-pyrazole-4-carboxamide] | 25 ± 0.87 | 24 ± 0.35 | 21 ± 0.55 | 9.2 (≈ 18.3 µM) | 4.5 (≈ 8.97 µM) | 7.41 (≈ 14.8 µM) | 3.9 (≈ 7.78 µM) | 14.1 (≈ 28 µM) | 7.81 (≈ 15.6 µM) | 31.2 (≈ 62.3 µM) | 15.6 (≈ 31.1 µM) | 5.57 (≈ 11.1 µM) | 10.6 (≈ 21.1 µM) | 15.6 (≈ 31.1 µM) | 7.81 (≈ 15.6 µM) | 25 ± 0.12 | 22 ± 0.2 | 14.2 ± 0.42 | Fold more potent than Tetracycline (MIC) [4]: 6 fold
